Assay results: ChEMBL document CHEMBL5356930, “Small-molecule inhibitors of bacterial-producing metallo-β-lactamases: insights into their resistance mechanisms and biochemical analyses of their activities” (RSC Med Chem, 2023)
Converted amounts (≈) assume the structure as drawn. Blank lines part the entries; values can stand above or below the compound they belong to.

Assays:
[1] = Cytotoxicity against human HepG2 cells incubated for 24 hrs by CellTiter-Glo assay; format: toxicity, cell-based
[2] = Inhibition of His-tagged recombinant bacterial Metallo-beta-lactamase IMP-1 (unknown origin) expressed in Escherichia coli BL21 star cells; design: species or system Bacteria
Escherichia coli [3] = assay: Antibacterial activity against IMP-type producing Escherichia coli clinical isolate in presence of meropenem by CLSI-based broth microdilution method; format: functional
Escherichia coli [4] = assay: Antibacterial activity against IMP-type producing Escherichia coli clinical isolate in presence of imipenem by CLSI-based broth microdilution method; format: functional
Escherichia coli [5] = assay: Antibacterial activity against NDM-1-producing Escherichia coli assessed as fold reduction in MIC in presence of meropenem CLSI-based broth microdilution method; format: functional
Klebsiella pneumoniae [6] = assay: Antibacterial activity against NDM-1-producing Klebsiella pneumoniae clinical isolate assessed as fold reduction in MIC in presence of meropenem CLSI-based broth microdilution method; format: functional
[7] = target: T1, Metallo-beta-lactamase VIM-2 (Pseudomonas aeruginosa, UniProt D1MEN9); assay: Inhibition of N-terminal His-tagged recombinant Pseudomonas aeruginosa Metallo-beta-lactamase VIM-2 expressed in Escherichia coli BL21 star cells using nitrocefin as substrate by absorbance based assay
Klebsiella pneumoniae [8] = assay: Antibacterial activity against VIM-1-producing Klebsiella pneumoniae NCTC 13440 clinical isolate by CLSI-based broth microdilution method; format: functional
[9] = Inhibition of bacterial Metallo-beta-lactamase VIM-2 (unknown origin); design: species or system Bacteria
[10] = Inhibition of bacterial Metallo-beta-lactamase GIM-1 using nitrocefin as substrate; design: species or system Bacteria
[11] = Cytotoxicity against human HEK293 cells incubated for 24 hrs by MTT assay; format: toxicity, cell-based
[12] = target: T2, Metallo-beta-lactamase type 2 (Bacteria, UniProt C7C422); assay: Inhibition of bacterial NDM-1 (unknown origin) using nitrocefin as substrate
T2 sequence (C7C422 whole entry): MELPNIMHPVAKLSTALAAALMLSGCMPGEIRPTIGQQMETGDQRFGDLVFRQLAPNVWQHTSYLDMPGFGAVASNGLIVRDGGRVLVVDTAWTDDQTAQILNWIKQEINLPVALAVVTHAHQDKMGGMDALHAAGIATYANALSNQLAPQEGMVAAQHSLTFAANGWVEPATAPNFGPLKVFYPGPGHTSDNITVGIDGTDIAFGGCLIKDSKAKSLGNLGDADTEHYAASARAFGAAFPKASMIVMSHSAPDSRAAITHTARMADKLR

[13] = target: T2, Metallo-beta-lactamase type 2; assay: Binding affinity to bacterial NDM-1 (unknown origin) using nitrocefin as substrate assessed as inhibition constant
Enterobacteriaceae [14] = assay: Synergistic antibacterial activity against NDM-1-producing Carbapenem-resistant Enterobacteriaceae assessed as fractional inhibitory concentration index in presence of meropenem; format: functional
[15] = target: T2, Metallo-beta-lactamase type 2; assay: Inhibition of bacterial NDM-1 (unknown origin)
[16] = target: T2, Metallo-beta-lactamase type 2; assay: Binding affinity to bacterial NDM-1 (unknown origin) assessed as inhibition constant
[17] = Cytotoxicity against human HeLa cells; format: toxicity, cell-based
[18] = Inhibition of Acinetobacter baumannii recombinant NDM-1 using nitrocefin as substrate preincubated for 10 mins followed by substrate addition by spectrophotometric analysis
Klebsiella pneumoniae [19] = assay: Antibacterial activity against IMP-type producing Klebsiella pneumoniae LC 82 clinical isolate in presence of imipenem; format: functional
Enterobacter sp. = assay: Antibacterial activity against IMP-type producing Enterobacter sp. 42713 clinical isolate in presence of imipenem; format: functional
Proteus mirabilis = assay: Antibacterial activity against IMP-type producing Proteus mirabilis UNC KPC 170 clinical isolate in presence of imipenem; format: functional
[20] = Binding affinity to bacterial Metallo-beta-lactamase IMP-1 (unknown origin) assessed as inhibition constant; design: species or system Bacteria
[21] = Cytotoxicity against human HEK293 cells assessed as cell viability >533 uM relative to control; format: toxicity, cell-based; conditions: read-out: Activity
[22] = Cytotoxicity against mouse L929 cells assessed as cell viability >533 uM relative to control; format: toxicity, cell-based; conditions: read-out: Activity
Beta-lactamase NDM-1 = Beta-lactamase NDM-1 (Escherichia coli, UniProt E5KIY2); assay: Inhibition of NDM-1 in Escherichia coli assessed as reduction in imipenem hydrolytic activity
Chain of Beta-lactamase NDM-1 (E5KIY2 whole entry): as the sequence (C7C422 whole entry) above

[23] = target: T1, Metallo-beta-lactamase VIM-2; assay: Binding affinity to Metallo-beta-lactamase VIM-2 assessed as inhibition constant
[24] = target: T2, Metallo-beta-lactamase type 2; assay: Inhibition of wildtype bacterial NDM-1 (unknown origin) expressed in Escherichia coli BL21(DE3) cells using nitrocefin as substrate incubated for 20 mins by absorbance based assay
[25] = target: T2, Metallo-beta-lactamase type 2; assay: Binding affinity to wildtype bacterial NDM-1 (unknown origin) expressed in Escherichia coli BL21(DE3) cells assessed as dissociation constant
Enterobacteriaceae [26] = assay: Antibacterial activity against NDM-1-producing Enterobacteriaceae; format: functional
[27] = target: T2, Metallo-beta-lactamase type 2; assay: Inhibition of bacterial NDM-1 (unknown origin) using imipenem as substrate
MCF7 = assay: Cytotoxicity against human MCF7 cells at 12.5 uM relative to control; format: toxicity, cell-based; conditions: mcf7, 12.5 µM
[28] = Cytotoxicity against human HeLa cells incubated for 24 hrs by PrestoBlue reagent based assay; format: toxicity, cell-based
[29] = Binding affinity to bacterial Metallo-beta-lactamase IMP-1 (unknown origin) expressed in Escherichia coli BL21(DE3) cells assessed as inhibition constant; design: species or system Bacteria
Escherichia coli [30] = assay: Synergistic activity against IMP-1 producing engineered Escherichia coli NUBL-24 assessed as fractional inhibition concentration index incubated for 16 to 20 hrs in presence of meropenem by CLSI-based microdilution method; format: functional; conditions: time 16-20 hrs
HeLa = assay: Cytotoxicity against human HeLa cells at >1000 uM incubated for 24 hrs by Celltiter assay relative to control; format: toxicity, cell-based
[31] = Acute toxicity in iv dosed CD1 mouse assessed as lethal dose measured for 7 days; format: organism-based; conditions: in vivo, time 7 day
[32] = Acute toxicity in ip dosed CD1 mouse assessed as lethal dose measured for 7 days; format: organism-based; conditions: in vivo, time 7 day
[33] = target: Angiotensin-converting enzyme (Homo sapiens, UniProt P12821); assay: Inhibition of angiotensin-converting enzyme (unknown origin)
Chain of Angiotensin-converting enzyme (P12821 whole entry): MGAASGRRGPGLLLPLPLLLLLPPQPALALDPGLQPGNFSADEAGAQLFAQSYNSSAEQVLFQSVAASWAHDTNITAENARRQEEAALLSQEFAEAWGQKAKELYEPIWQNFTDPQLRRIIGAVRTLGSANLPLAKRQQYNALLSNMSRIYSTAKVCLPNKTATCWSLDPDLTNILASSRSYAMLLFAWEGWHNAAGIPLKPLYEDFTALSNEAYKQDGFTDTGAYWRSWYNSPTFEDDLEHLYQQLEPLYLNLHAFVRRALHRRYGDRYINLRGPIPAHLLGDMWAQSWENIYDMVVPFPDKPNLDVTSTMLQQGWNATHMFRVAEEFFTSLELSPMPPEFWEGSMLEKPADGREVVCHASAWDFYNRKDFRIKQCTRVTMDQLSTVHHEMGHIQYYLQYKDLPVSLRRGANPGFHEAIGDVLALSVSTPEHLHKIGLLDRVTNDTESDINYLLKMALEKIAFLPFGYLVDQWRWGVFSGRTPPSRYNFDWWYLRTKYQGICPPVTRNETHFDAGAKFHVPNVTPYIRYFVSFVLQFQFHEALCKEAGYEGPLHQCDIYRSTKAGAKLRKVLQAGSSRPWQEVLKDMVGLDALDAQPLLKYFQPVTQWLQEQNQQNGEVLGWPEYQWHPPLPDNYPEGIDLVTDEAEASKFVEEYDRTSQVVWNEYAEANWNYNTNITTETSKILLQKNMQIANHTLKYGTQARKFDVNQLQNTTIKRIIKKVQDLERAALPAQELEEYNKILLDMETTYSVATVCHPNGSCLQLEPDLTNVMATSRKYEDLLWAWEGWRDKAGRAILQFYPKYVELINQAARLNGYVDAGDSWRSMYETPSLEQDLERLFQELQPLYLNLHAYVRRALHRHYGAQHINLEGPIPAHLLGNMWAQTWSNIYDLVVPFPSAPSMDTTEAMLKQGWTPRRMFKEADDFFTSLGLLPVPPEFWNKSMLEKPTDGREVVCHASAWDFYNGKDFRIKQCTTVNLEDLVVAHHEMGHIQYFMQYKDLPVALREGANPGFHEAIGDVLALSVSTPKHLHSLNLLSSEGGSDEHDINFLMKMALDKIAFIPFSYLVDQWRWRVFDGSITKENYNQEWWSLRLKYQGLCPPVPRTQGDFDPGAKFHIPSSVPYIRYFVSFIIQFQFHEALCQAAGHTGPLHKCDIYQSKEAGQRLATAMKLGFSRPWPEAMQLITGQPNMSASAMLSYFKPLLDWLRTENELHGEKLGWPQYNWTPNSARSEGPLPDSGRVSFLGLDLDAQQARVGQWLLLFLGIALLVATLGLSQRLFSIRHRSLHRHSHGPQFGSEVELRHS

Escherichia coli [34] = assay: Synergistic activity against IMP-1 producing Escherichia coli NUBL-24 infected in CD1 mouse assessed as death rescue at 100 mg/kg, ip measured for 7 days in presence of meropenem relative to control; format: functional; conditions: time 7 day
[35] = Binding affinity to bacterial Metallo-beta-lactamase VIM-2 (unknown origin) expressed in Escherichia coli BL21(DE3) cells assessed as inhibition constant; design: species or system Bacteria
Escherichia coli [36] = assay: Synergistic activity against VIM-2-producing Escherichia coli assessed as fractional inhibition concentration index in presence of ceftazidime by checkerboard assay; format: functional
Klebsiella pneumoniae [37] = assay: Synergistic activity against NDM-1/VIM-1-producing Klebsiella pneumoniae MS5674 assessed as fractional inhibition concentration index in presence of meropenem by checkerboard assay; format: functional
Beta-lactamase VIM-1 = Beta-lactamase VIM-1 (Bacteria, UniProt Q8GDC1); assay: Inhibition of bacterial Metallo-beta-lactamase VIM-1 (unknown origin)
[38] = Inhibition of bacterial Metallo-beta-lactamase VIM-4 (unknown origin); design: species or system Bacteria
[39] = Binding affinity to bacterial Metallo-beta-lactamase VIM-2 (unknown origin) assessed as inhibition constant; design: species or system Bacteria

Structure (SMILES): COP(=O)(CCSC(C)=O)NCc1ccccn1 (centres undefined)
IC50 [9]: 2.2 µM
IC50 [10]: 86 µM

Structure (SMILES): COC(=O)[C@H]1CN(C(=O)CN(Cc2ccccn2)Cc2ccccn2)C[C@@H]1c1ccc(OCc2ccccc2)c(OC)c1 (racemic)
IC50 at 24 h [11]: > 128 µM
IC50 [12]: 51 µM
Ki [13]: 4.6 µM
fractional inhibitory concentration index (FICI) (Enterobacteriaceae [14]): 0.01

Structure (SMILES): CCOC(=O)[C@]1(CS)N[C@@H](C(=O)O)C(C)(C)S1
MIC (Klebsiella pneumoniae [19]): 0.5 µg/mL
MIC (Enterobacter sp.): 8 µg/mL
MIC (Proteus mirabilis): 8 µg/mL
Ki [20]: 2 µM
viability at 533 µM [21]: 85%
viability [22]: 85%
IC50 (Beta-lactamase NDM-1): 10 µM
Ki ([16]; read-out: Ki): 0.6 µM
Ki [23]: 1.9 µM

Structure (SMILES): COP(=O)(CCSC(C)=O)N(C)Cc1ccccn1 (racemic)
IC50 at 24 h [28]: > 500 µM
IC50 [10]: 109 µM

Structure (SMILES): Cc1oc(C)c(S(N)(=O)=O)c1C(=O)O
Ki [29]: 0.22 µM
fractional inhibitory concentration index (FICI) (Escherichia coli [30]): 0.11
Activity (HeLa): > 50%
LD50 at 168 h [31]: 246 mg/kg
LD50 at 168 h [32]: > 1000 mg/kg
IC50 [33]: > 1000 µM
Activity (Escherichia coli [34]): 90%
Ki [35]: 2.81 µM
fractional inhibitory concentration index (FICI) (Escherichia coli [36]): 0.31
fractional inhibitory concentration index (FICI) (Klebsiella pneumoniae [37]): 0.19

The next lines start with results.

IC50 [2]: 0.43 µM
MIC (Escherichia coli [3]): 0.03 µg/mL
MIC (Escherichia coli [4]): 0.25 µg/mL
IC50 [7]: 32.4 µM
MIC50 (Klebsiella pneumoniae [8]): 0.06 µg/mL (≈ 0.213 µM)
Structure (SMILES): Nc1ccc(-c2ccn(S(N)(=O)=O)c2C(=O)O)cn1
CC50 at 24 h [1]: > 256 µg/mL
fold change (FC) (Escherichia coli [5]): 32
fold change (FC) (Klebsiella pneumoniae [6]): 32

IC50 [15]: 0.302 µM
Ki [16]: 440 µM
Structure (SMILES): CN1CCN(C(=S)N/N=C/c2ccccc2O)CC1
IC50 [17]: > 64 µg/mL

IC50 [18]: 24 µM
Structure (SMILES): CC1=C(CO)C(=O)O[C@@H]([C@@H](C)[C@H]2CC[C@H]3[C@@H]4C[C@H]5O[C@]56[C@@H](O)C=CC(=O)[C@]6(C)[C@H]4CC[C@]23C)C1 [WITHAFERIN A]

IC50 [24]: 12.1 µM
Kd [25]: 11.8 µM
MIC50 (Enterobacteriaceae [26]): 32 µM (≈ 15.1 µg/mL)
Structure (SMILES): CC1=C[C@@]2(C)[C@@H](/C(C)=C/[C@]3(C)O[C@H](C)[C@@]4(C)O[C@H]43)[C@](C)([C@@H](O)[C@@H](C)C(=O)C(C)C)[C@H]2[C@]2(C)O[C@H]12

Ki ([16]; read-out: Ki): 5.9 µM
IC50 [27]: 0.02 µM
Structure (SMILES): O=S(=O)(Nc1cccc2cccnc12)c1ccc(Cl)cc1
Activity (MCF7): < 60%

IC50 (Beta-lactamase VIM-1): 1.61 µM
IC50 [9]: 0.08 µM
IC50 [38]: 2.1 µM
Ki [39]: 0.038 µM
Structure (SMILES): O=C(O)c1ccccc1CCn1c(-c2cccc(-c3ccccc3)c2)n[nH]c1=S
